Experimental data reported in US11596611B2, “Hepatitis B antiviral agents” (ENANTA PHARMACEUTICALS, INC., priority 2017, dated 2023).

What follows are compounds tested on HBV (assay: HepAD38 antiviral assay: reduction of viral product accumulation (virion DNA by qPCR, HBsAg or HBeAg by ELISA)). Conditions: Hepatitis B virus, 120 h; HepAD38 cells, five days after compound addition; 50% reduction of viral product vs no drug controls; read-out: HepAD38 EC50.
Format: cell-based, hepatitis B virus
Procedure: Methods: HepAD38 cells are maintained as previously reported (Ladner et al, Antimicrob. Agents Chemother. 1997, […], 1715). Briefly, cells are passaged upon attaining confluency in DMEM/F12 media in the presence of 10% FBS, Penn/Strep, 250 μg/mL G418, and 1 ug/ml tetracycline. Novel compounds are screened by first washing cells three times with PBS to remove tetracycline, and plating in 96 well plates at 35,000 cells/well. Compounds dissolved in DMSO are then diluted 1:200 into wells containing cells. Five days after compound addition, material is harvested for analysis. For an extended 8 days analysis, cells are plated and treated as described above, but media and compound are refreshed on d2 and d5 post initial treatment.
On harvest day, virion DNA is obtained by lysing with Sidestep Lysis and Stabilization Buffer and then quantified via quantitative real time PCR. Commercially available ELISA kits are used to quantitate the viral proteins HBsAg (Alpco) or HbeAg (US Biological) by following the manufacturer's recommended protocol after diluting samples to match the linear range of their respective assays.
O=C1N[C@H](C(=O)NC[C@]2(O)C3CCC2C[C@@H](S(=O)(=O)c2cc(C(=O)Nc4cc(F)c(F)c(F)c4)ccc2Cl)C3)CO1 [Example 85] gave an EC50 greater than 0.2 µM. With O=C(Nc1ccc(F)c(F)c1)c1ccc(Cl)c(S(=O)(=O)C2CC(O)(CO)C2)c1 (centres unmarked) [Example 220] the EC50 was greater than 0.2 µM. O=C(Nc1cc(F)c(F)c(F)c1)c1ccc(Cl)c(S(=O)(=O)C2CC3CCC(C2)C3C(O)C(O)CO)c1 (centres unmarked) [Example 20] gave an EC50 of less than 0.104 µM. Compound O=C(Nc1ccc(F)c(F)c1)c1ccc(Cl)c(S(=O)(=O)[C@H]2CC3CCC(C2)[C@]3(O)C(O)CN2CCOC2=O)c1 (some centres unmarked) [Example 315] has an EC50 greater than 0.2 µM. Work on Cc1cccc([C@H](O)[C@@]2(O)C3CC[C@H]2C[C@H](S(=O)(=O)c2cc(C(=O)Nc4ccc(F)c(F)c4)ccc2Cl)C3)n1 [Example 294a] yielded an EC50 of less than 0.104 µM. With O=C(Nc1ccc(F)c(F)c1)c1ccc(Cl)c(S(=O)(=O)[C@H]2C[C@H](CO)C2)c1 [Example 252a] the EC50 was greater than 0.2 µM. In the case of COC(=O)CNC(=O)CC1(O)CC(S(=O)(=O)c2cc(C(=O)Nc3ccc(F)c(F)c3)ccc2Cl)C1 (centres unmarked) [Example 244], the EC50 is reported as greater than 0.2 µM. In the case of O=C(Nc1cc(F)c(F)c(F)c1)c1ccc(Cl)c(S(=O)(=O)[C@H]2CC3CCC(C2)[C@]3(O)CNC(=O)[C@H]2CCCO2)c1 [Example 15], the EC50 is reported as less than 0.104 µM. Compound O=C(C[C@]1(O)C2CCC1C[C@@H](S(=O)(=O)c1cc(C(=O)Nc3cc(F)c(F)c(F)c3)ccc1Cl)C2)NCC(O)CO (some centres unmarked) [Example 65] has an EC50 of less than 0.104 µM. With C[C@H](O)[C@@H](O)[C@@]1(O)C2CC(O)C1C[C@H](S(=O)(=O)c1cc(C(=O)Nc3ccc(F)c(F)c3)ccc1Cl)C2 (some centres unmarked) [Example 337] the EC50 was greater than 0.2 µM. CC(C)C(O)[C@]1(O)C2CCC1C[C@@H](S(=O)(=O)c1cc(C(=O)Nc3ccc(F)c(F)c3)ccc1Cl)C2 (some centres unmarked) [Example 281] showed an EC50 greater than 0.2 µM. CC(C)c1cc(NC(=O)c2ccc(Cl)c(S(=O)(=O)[C@H]3CC4CCC(C3)[C@@]4(C)O)c2)ccc1F [Example 43] was tested, and the EC50 was greater than 0.2 µM. C[C@]1(O)C2CCC1C[C@@H](S(=O)(=O)c1cc(C(=O)Nc3ccc(F)c(F)c3)c(-c3cccnc3)cc1Cl)C2 [Example 102] was tested, and the EC50 was greater than 0.2 µM. O=C(Nc1ccc(F)c(F)c1)c1ccc(Cl)c(S(=O)(=O)[C@H]2CC3CCC(C2)[C@]3(O)C(O)c2ccccc2)c1 (some centres unmarked) [Example 283] showed an EC50 of 0.1 to 0.2 µM. Compound O=C(Nc1ccc(F)c(F)c1)c1ccc(Cl)c(S(=O)(=O)[C@H]2CC3CCC(C2)[C@]3(O)C(O)CO)c1 (mixture of isomers) [Example 82] has an EC50 of less than 0.104 µM. O=C(Nc1ccc(F)c(F)c1)c1ccc(Cl)c(S(=O)(=O)[C@H]2CC3CCC(C2)[C@]3(O)C(O)Cn2cccn2)c1 (some centres unmarked) [Example 314] was tested, and the EC50 was less than 0.104 µM. With COC(=O)N[C@@H](CCC(N)=O)C(=O)NC[C@]1(O)C2CCC1C[C@@H](S(=O)(=O)c1cc(C(=O)Nc3cc(F)c(F)c(F)c3)ccc1Cl)C2 [Example 84] the EC50 was greater than 0.2 µM. In the case of COC(=O)[C@H]1C[C@@H](S(=O)(=O)c2cc(C(=O)Nc3ccc(F)c(F)c3)ccc2Cl)C1 [Example 250b], the EC50 is reported as greater than 0.2 µM. CCC1(O)CC(S(=O)(=O)c2cc(C(=O)Nc3ccc(F)c(F)c3)ccc2Cl)C1 (centres unmarked) [Example 233] showed an EC50 greater than 0.2 µM. COC(=O)CNC(=O)C[C@]1(O)C2CCC1C[C@@H](S(=O)(=O)c1cc(C(=O)Nc3cc(F)c(F)c(F)c3)ccc1Cl)C2 [Example 119] was tested, and the EC50 was greater than 0.2 µM. Compound O=C(Nc1ccc(F)c(F)c1)c1ccc(Cl)c(S(=O)(=O)[C@H]2CC3CCC(C2)[C@]3(O)C(=O)O)c1 [Example 205] has an EC50 greater than 0.2 µM. With O=C(Nc1ccc(F)c(F)c1)c1ccc(Cl)c(S(=O)(=O)[C@H]2CC3CCC(C2)[C@]3(O)[C@@H](O)CO)c1 (single isomer, unassigned) [Example 175] the EC50 was less than 0.104 µM. For CCCCc1cc(Cl)c(S(=O)(=O)[C@H]2CC3CCC(C2)[C@@]3(C)O)cc1C(=O)Nc1ccc(F)c(F)c1 [Example 103], the EC50 was less than 0.104 µM. Compound Cc1cccc([C@@H](O)[C@@]2(O)C3CC[C@H]2C[C@H](S(=O)(=O)c2cc(C(=O)Nc4ccc(F)c(F)c4)ccc2Cl)C3)n1 [Example 294b] has an EC50 of less than 0.104 µM. CC(O)C(O)CNC(=O)C[C@]1(O)C2CCC1C[C@@H](S(=O)(=O)c1cc(C(=O)Nc3cc(F)c(F)c(F)c3)ccc1Cl)C2 (some centres unmarked) [Example 57] gave an EC50 of 0.1 to 0.2 µM. O=C(Nc1cc(F)c(F)c(F)c1)c1ccc(Cl)c(S(=O)(=O)[C@H]2C3CC[C@H]2C[C@](O)(C(O)C(O)CO)C3)c1 (mixture of isomers) [Example 64] was tested, and the EC50 was 0.1 to 0.2 µM. With O=C(Nc1cc(F)c(F)c(F)c1)c1ccc(Cl)c(S(=O)(=O)[C@H]2CC3CCC(C2)[C@]3(O)CNC(=O)C2CCOC2)c1 (some centres unmarked) [Example 87] the EC50 was less than 0.104 µM. For O=C(Nc1ccc(F)c(F)c1)c1ccc(Cl)c(S(=O)(=O)[C@H]2CC3CCC(C2)[C@]3(O)C(O)c2ccncc2)c1 (some centres unmarked) [Example 286], the EC50 was 0.1 to 0.2 µM. With COC(=O)CCNC(=O)[C@H]1C[C@@H](S(=O)(=O)c2cc(C(=O)Nc3ccc(F)c(F)c3)ccc2Cl)C1 [Example 257b] the EC50 was greater than 0.2 µM. Work on O=C(Nc1ccc(F)c(F)c1)c1ccc(Cl)c(S(=O)(=O)[C@H]2CC3CC[C@@H](C2)[C@@]3(O)C(O)Cn2ccnc2)c1 (some centres unmarked) [Example 311] yielded an EC50 greater than 0.2 µM. Compound CC(C)N(C[C@]1(O)C2CCC1C[C@@H](S(=O)(=O)c1cc(C(=O)Nc3ccc(F)c(F)c3)ccc1Cl)C2)C(C)C [Example 342] has an EC50 of less than 0.104 µM. With COC(=O)CNC(=O)[C@H]1C[C@H](S(=O)(=O)c2cc(C(=O)Nc3ccc(F)c(F)c3)ccc2Cl)C1 [Example 253a] the EC50 was greater than 0.2 µM. Cn1nccc1C(O)[C@]1(O)C2CCC1C[C@@H](S(=O)(=O)c1cc(C(=O)Nc3ccc(F)c(F)c3)ccc1Cl)C2 (some centres unmarked) [Example 288] showed an EC50 of less than 0.104 µM. In the case of Cc1ccnc([C@H](O)[C@@]2(O)C3CC[C@H]2C[C@H](S(=O)(=O)c2cc(C(=O)Nc4ccc(F)c(F)c4)ccc2Cl)C3)c1 [Example 296a], the EC50 is reported as less than 0.104 µM. Compound O=C(Nc1ccc(F)c(F)c1)c1ccc(Cl)c(S(=O)(=O)C2CC3CCC(C2)C3=O)c1 (centres unmarked) [Example 204] has an EC50 of 0.1 to 0.2 µM. C[C@H](O)CC(=O)NC[C@]1(O)C2CCC1C[C@@H](S(=O)(=O)c1cc(C(=O)Nc3ccc(F)c(F)c3)ccc1Cl)C2 [Example 169] gave an EC50 of 0.1 to 0.2 µM. O=C(Nc1ccc(F)c(F)c1)c1ccc(Cl)c(S(=O)(=O)[C@H]2CC3CC[C@@H](C2)[C@@]3(O)C(O)Cn2cccn2)c1 (some centres unmarked) [Example 310] gave an EC50 greater than 0.2 µM. Cc1ccc(NC(=O)c2ccc(Cl)c(S(=O)(=O)[C@H]3CC4CCC(C3)[C@@]4(C)O)c2)cc1F [Example 44] showed an EC50 greater than 0.2 µM. For O=C(Nc1ccc(F)c(F)c1)c1ccc(Cl)c(S(=O)(=O)[C@H]2CC3CCC(C2)[C@]3(O)[C@H](O)CO)c1 (single isomer, unassigned) [Example 174], the EC50 was less than 0.104 µM. For O=C(Nc1ccc(F)c(F)c1)c1ccc(Cl)c(S(=O)(=O)C2CC(O)(CCO)C2)c1 (centres unmarked) [Example 240], the EC50 was greater than 0.2 µM. C[C@@]1(O)C2CC[C@H]1C[C@H](S(=O)(=O)c1cc(C(=O)Nc3cnccn3)ccc1Cl)C2 [Example 214] gave an EC50 greater than 0.2 µM. For C[C@@]1(O)C2CC[C@H]1C[C@H](S(=O)(=O)c1cc(C(=O)Nc3ccc(F)c(F)c3)c(Cc3ccccc3)cc1Cl)C2 [Example 160], the EC50 was greater than 0.2 µM. For O=C(Nc1ccc(F)c(F)c1)c1ccc(Cl)c(S(=O)(=O)[C@H]2CC3CCC(C2)[C@]3(O)C(O)Cc2ncc[nH]2)c1 (some centres unmarked) [Example 316], the EC50 was greater than 0.2 µM. In the case of O=C(Nc1ccc(F)c(F)c1)c1ccc(Cl)c(S(=O)(=O)[C@@H]2CC3CC[C@@H](C2)[C@@]3(O)C(O)c2ccnc(Br)c2F)c1 (some centres unmarked) [Example 298], the EC50 is reported as less than 0.104 µM. For C[C@]1(O)C2CCC1C[C@@H](S(=O)(=O)c1cc(C(=O)Nc3ccc(F)c(CO)c3)ccc1Cl)C2 [Example 166], the EC50 was less than 0.104 µM. With COc1cc(NC(=O)c2ccc(Cl)c(S(=O)(=O)[C@H]3CC4CCC(C3)[C@@]4(C)O)c2)ccc1F [Example 104] the EC50 was greater than 0.2 µM. COCCOC[C@]1(O)C2CCC1C[C@@H](S(=O)(=O)c1cc(C(=O)Nc3cc(F)c(F)c(F)c3)ccc1Cl)C2 [Example 98] showed an EC50 of less than 0.104 µM. Work on CC(=O)C[C@]1(O)CC[C@H](CS(=O)(=O)c2cc(C(=O)Nc3ccc(F)c(F)c3)ccc2Cl)CC1 [Example 222] yielded an EC50 of 0.1 to 0.2 µM. With O=C(Nc1cc(F)c(F)c(F)c1)c1ccc(Cl)c(S(=O)(=O)[C@@H]2CC3CC[C@@H](C2)[C@@]3(O)CNC(=O)C2CC2(O)CO)c1 (some centres unmarked) [Example 67] the EC50 was greater than 0.2 µM. In the case of O=C(Nc1cc(F)c(F)c(F)c1)c1ccc(Cl)c(S(=O)(=O)[C@@H]2CC3CC[C@@H](C2)[C@@]3(O)CNC(=O)[C@@H]2C[C@@H](O)[C@@H](O)C2)c1 [Example 24], the EC50 is reported as greater than 0.2 µM. With COC(=O)N[C@@H](C)C(=O)NC[C@]1(O)C2CCC1C[C@@H](S(=O)(=O)c1cc(C(=O)Nc3ccc(F)c(F)c3)ccc1Cl)C2 [Example 159] the EC50 was less than 0.104 µM. With C[C@]1(O)C2CCC1C[C@@H](S(=O)(=O)c1cc(C(=O)Nc3ccc(Cl)c(F)c3)ccc1Cl)C2 [Example 46] the EC50 was greater than 0.2 µM. COC(=O)N1CC(=O)C[C@H]1C(=O)NC[C@]1(O)C2CCC1C[C@@H](S(=O)(=O)c1cc(C(=O)Nc3cc(F)c(F)c(F)c3)ccc1Cl)C2 [Example 74] gave an EC50 of 0.1 to 0.2 µM. With C[C@H](O)C(=O)O[C@@H](C)C(=O)NC[C@]1(O)C2CCC1C[C@@H](S(=O)(=O)c1cc(C(=O)Nc3cc(F)c(F)c(F)c3)ccc1Cl)C2 (single isomer, unassigned) [Example 106] the EC50 was less than 0.104 µM. With O=C(Nc1cc(F)c(F)c(F)c1)c1ccc(Cl)c(S(=O)(=O)[C@H]2CC3CCC(C2)[C@]3(O)CNC(=O)C2CC=CCC2)c1 (some centres unmarked) [Example 18] the EC50 was less than 0.104 µM.

Same assay, conditions: Hepatitis B virus, HePAD38, 120 h, read-out: HepAD38 EC50 (μM)
Compound COC(=O)N[C@H](C(=O)N1C2CCC1CC(S(=O)(=O)c1cc(C(=O)Nc3cc(F)c(F)c(F)c3)ccc1Cl)C2)C(C)C (some centres unmarked) [Example 142] has an EC50 of 0.1 to 0.2 µM.
